Molecular target: T1, Metabotropic glutamate receptor 1 (Homo sapiens, UniProt Q13255)
Assay: Compound was tested for inhibition of glutamate-evoked (10 uM) [Ca2+] mobilization in Metabotropic glutamate receptor 1 expressed-CHO cells; NE: No effect at 1-100 uM
Assay type: cell-based

T1 sequence (Q13255 whole entry): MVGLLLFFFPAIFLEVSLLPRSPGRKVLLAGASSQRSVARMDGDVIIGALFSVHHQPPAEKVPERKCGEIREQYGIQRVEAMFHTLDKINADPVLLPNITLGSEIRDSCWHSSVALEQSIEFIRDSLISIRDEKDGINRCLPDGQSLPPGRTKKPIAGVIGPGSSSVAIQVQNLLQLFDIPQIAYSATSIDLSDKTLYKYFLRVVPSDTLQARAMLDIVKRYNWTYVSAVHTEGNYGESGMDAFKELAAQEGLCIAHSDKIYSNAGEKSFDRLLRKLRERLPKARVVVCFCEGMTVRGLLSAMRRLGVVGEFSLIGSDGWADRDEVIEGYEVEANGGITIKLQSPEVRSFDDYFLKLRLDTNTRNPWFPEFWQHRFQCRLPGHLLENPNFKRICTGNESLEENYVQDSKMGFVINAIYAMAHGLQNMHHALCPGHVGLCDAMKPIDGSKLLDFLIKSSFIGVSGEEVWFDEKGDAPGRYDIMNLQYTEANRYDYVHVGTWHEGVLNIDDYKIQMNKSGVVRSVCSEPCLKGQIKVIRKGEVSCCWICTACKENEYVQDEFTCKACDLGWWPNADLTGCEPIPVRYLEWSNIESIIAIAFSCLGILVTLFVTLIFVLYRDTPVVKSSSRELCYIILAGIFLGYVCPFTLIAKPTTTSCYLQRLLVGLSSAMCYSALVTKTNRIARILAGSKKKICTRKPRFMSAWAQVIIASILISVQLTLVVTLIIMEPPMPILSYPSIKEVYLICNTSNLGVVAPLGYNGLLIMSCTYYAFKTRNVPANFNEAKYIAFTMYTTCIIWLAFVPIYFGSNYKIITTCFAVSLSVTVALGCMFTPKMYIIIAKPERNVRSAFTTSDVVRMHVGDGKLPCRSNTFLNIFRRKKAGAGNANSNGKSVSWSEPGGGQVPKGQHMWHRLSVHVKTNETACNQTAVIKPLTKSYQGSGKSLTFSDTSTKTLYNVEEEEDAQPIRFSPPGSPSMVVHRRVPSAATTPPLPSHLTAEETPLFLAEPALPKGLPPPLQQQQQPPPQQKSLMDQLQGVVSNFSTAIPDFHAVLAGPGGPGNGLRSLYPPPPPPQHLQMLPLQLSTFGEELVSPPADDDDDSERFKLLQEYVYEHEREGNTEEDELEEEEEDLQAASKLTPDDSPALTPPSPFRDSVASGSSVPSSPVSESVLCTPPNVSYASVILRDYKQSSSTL

IC50 | Compound
No effect | O=C(Nc1ccccc1)c1cc(=O)c2ccccc2o1
No effect | CCOC(=O)C12CC1C(=O)c1ccccc1O2 (stereo unspecified)
No effect | CCOC(=O)c1cc(=O)c2ccccc2o1
No effect | CN(C(=O)C12CC1C(=O)c1ccccc1O2)c1ccccc1 (stereo unspecified)
No effect | CN(C(=O)c1cc(=O)c2ccccc2o1)c1ccccc1
No effect | O=C1c2ccccc2OC2(C(=O)Nc3ccccc3)CC12 (stereo unspecified)

Molecular target: T1, Metabotropic glutamate receptor 1
Assay: Compound was tested for inhibition of glutamate-evoked (10 uM) [Ca2+] mobilization in mGluR1-alpha expressed-CHO cells.
Assay type: cell-based

IC50 | Compound
3 µM | O=C(Nc1ccccc1)C12CC1/C(=N\O)c1ccccc1O2 (stereo unspecified)
23 µM | CCOC(=O)C12CC1/C(=N\O)c1ccccc1O2 (stereo unspecified)
700 µM | CC(N)(C(=O)O)c1ccc(C(=O)O)cc1 (stereo unspecified)
200 µM | NC(C(=O)O)c1ccc(C(=O)O)c(O)c1 (stereo unspecified)
10 µM | CN(C(=O)C12CC1/C(=N\O)c1ccccc1O2)c1ccccc1 (stereo unspecified)

Source: ChEMBL document CHEMBL1129779, “A novel class of antagonists for metabotropic glutamate receptors, 7-(Hydroxyimino)cyclopropa[b]chromen-1a-carboxylates” (Bioorg Med Chem Lett, 1996)
